Tests used:
Type in all cases: in vivo
[1] = tested on: Echinochloa crus-galli (L.) Beauv. var. crusgall (Ec); assay: Test for herbicidal effect by upland field soil treatment (Test Example 2), Ec
Procedure: (§1) [table] <Test Example 2> Test For Herbicidal Effect By Upland Field Soil Treatment An upland field soil was filed in a plastic pot of 80 cm^2. Seeds of Echinochloa crus-galli (L.) Beauv. var. crusgall (Ec) and Setaria viridis (L.) Beauv. (Se) were sowed, followed by covering with the same soil. Wettable powders produced in accordance with the Formulation 1 were diluted with water and sprayed uniformly: on the soil surface using a small sprayer, in an amount of 100 liters per 10 ares so that the amount of each active ingredient became 100 g per 10 ares. Then, breeding was made in a greenhouse, and the herbicidal effect of each wettable powder was examined at the 21st day from the treatment in accordance with the standard shown in Table 40.

[2] = tested on: Setaria viridis (L.) Beauv. (Se); assay: Test for herbicidal effect by upland field soil treatment (Test Example 2), Se
Procedure: as §1

[3] = tested on: Echinochloa oryzicola Vasing. (Eo); assay: Test for herbicidal effect by paddy field soil treatment (Test Example 1); settings: application amount (active ingredient) 100 g/10 a, examined at the 21st day from the treatment, index per Table 40
Procedure: <Test Example 1> Test For Herbicidal Effect By Paddy Field Soil Treatment A paddy field soil was filled in a plastic pot of 100 cm^2 and subjected to puddling. Then, seeds of Echinochloa oryzicola Vasing. (Eo) were sowed and water was filled in a depth of 3 cm. Next day, wettable powders produced in accordance with the Formulation 1 were diluted with water and dropped on the water surface. The application amount of each wettable powder was 100 g per 10 ares in terms of the active ingredient. Then, breeding was made in a greenhouse, and the herbicidal effect of each wettable powder was examined at the 21st day from the treatment in accordance with the standard shown in Table 40. [table]

[4] = application amount (active ingredient) 100 g/10 a, examined at the 21st day from the treatment, index per Table 40
[5] = 100 g/10 a active ingredient, examined at 21st day

Compound | Herbicidal effect to Ec [1, 4] | Herbicidal effect to Se [2, 4] | Herbicidal effect to Eo [3] | Herbicidal effect to Ec [1, 5] | Herbicidal effect to Se [2, 5]
CCC1(C)CC(S(=O)(=O)Cc2ccccc2F)=NO1 (centres unmarked) [Compound 1-189] | 5 (A herbicidal effect or phytotoxicity of 90% or more) | 5 (A herbicidal effect or phytotoxicity of 90% or more) | 5 (A herbicidal effect or phytotoxicity of 90% or more) |  | 
CCC1(C)CC(S(=O)(=O)Cc2ccc(C#N)cc2)=NO1 (centres unmarked) [Compound 1-329] | 5 (A herbicidal effect or phytotoxicity of 90% or more) | 5 (A herbicidal effect or phytotoxicity of 90% or more) | 5 (A herbicidal effect or phytotoxicity of 90% or more) |  | 
CC12CCCCC1C(S(=O)(=O)Cc1c(F)cccc1F)=NO2 (centres unmarked) [Compound 1-493] | 5 (A herbicidal effect or phytotoxicity of 90% or more) | 4 (A herbicidal effect or phytotoxicity of 70% to less than 90%) | 5 (A herbicidal effect or phytotoxicity of 90% or more) |  | 
CC1(C)CC(S(=O)(=O)Cc2cc([N+](=O)[O-])cc([N+](=O)[O-])c2)=NO1 [Compound 1-546] |  |  | 5 (A herbicidal effect or phytotoxicity of 90% or more) | 5 (A herbicidal effect or phytotoxicity of 90% or more) | 4 (A herbicidal effect or phytotoxicity of 70% to less than 90%)
CCC1(C)CC(S(=O)(=O)Cc2ccccc2Br)=NO1 (centres unmarked) [Compound 1-195] | 5 (A herbicidal effect or phytotoxicity of 90% or more) | 5 (A herbicidal effect or phytotoxicity of 90% or more) | 5 (A herbicidal effect or phytotoxicity of 90% or more) |  | 
O=S(=O)(Cc1c(F)cccc1F)C1=NOC2CCCCCC12 (centres unmarked) [Compound 1-388] | 5 (A herbicidal effect or phytotoxicity of 90% or more) | 5 (A herbicidal effect or phytotoxicity of 90% or more) | 5 (A herbicidal effect or phytotoxicity of 90% or more) |  | 
Fc1cccc(F)c1CSC1=NOC2(CCC2)C1 [Compound 1-381] | 4 (A herbicidal effect or phytotoxicity of 70% to less than 90%) | 4 (A herbicidal effect or phytotoxicity of 70% to less than 90%) | 5 (A herbicidal effect or phytotoxicity of 90% or more) |  | 
CC(C)OC(=O)c1cccc(Cl)c1CS(=O)(=O)C1=NOC(C)(C)C1 [Compound 1-621] |  |  | 5 (A herbicidal effect or phytotoxicity of 90% or more) | 5 (A herbicidal effect or phytotoxicity of 90% or more) | 4 (A herbicidal effect or phytotoxicity of 70% to less than 90%)
CCC1(C)CC(S(=O)(=O)Cc2ccc(F)cc2)=NO1 (centres unmarked) [Compound 1-191] | 5 (A herbicidal effect or phytotoxicity of 90% or more) | 5 (A herbicidal effect or phytotoxicity of 90% or more) | 5 (A herbicidal effect or phytotoxicity of 90% or more) |  | 
C#CCOC(=O)c1ccccc1CS(=O)(=O)C1=NOC(C)(C)C1 [Compound 1-600] |  |  | 5 (A herbicidal effect or phytotoxicity of 90% or more) | 5 (A herbicidal effect or phytotoxicity of 90% or more) | 
CS(=O)(=O)C1=NOC2(CC2)C1 [Compound 2-28] |  |  | 5 (A herbicidal effect or phytotoxicity of 90% or more) |  | 
CC(c1ccccc1C(F)(F)F)S(=O)(=O)C1=NOC(C)(C)C1 (centres unmarked) [Compound 1-575] |  |  | 5 (A herbicidal effect or phytotoxicity of 90% or more) |  | 
O=S(=O)(Cc1c(F)cccc1F)C1=NOCC1 [Compound 1-533] |  |  | 5 (A herbicidal effect or phytotoxicity of 90% or more) |  | 
